From patent US20180371044A1, “PEPTIDOMIMETIC MACROCYCLES” (Aileron Therapeutics, Inc., priority 2015, published 2018)
Where a SMILES comes first, the peptide text is derived from it. Bridges are numbered along the chain shown (N, C = ends). [ ]: non-standard residue; d: D form. NMeY = CN[C@@H](Cc1ccc(O)cc1)C(=O)O; R8 = C=CCCCCCC[C@@](C)(N)C(=O)O; S5 = C=CCCC[C@](C)(N)C(=O)O; Nle = CCCC[C@H](N)C(=O)O

molecular target: T1, human GHRH receptor (hGHRHR) (Homo sapiens, UniProt Q02643); test: GHRHR agonism measured by cAMP (HTRF) in human 293 cells expressing hGHRHR; type: cell-based; conditions: 30 min at RT;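 note: receptor expressed transiently or stably, cells stimulated in serum-free medium, EC50 from a non-linear dose-response fit, maximal response defined by reference GHRH stimulation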
T1 construct: expressed in transfected cells; host or cells: Human 293 cells
T1 sequence (Q02643 23-423): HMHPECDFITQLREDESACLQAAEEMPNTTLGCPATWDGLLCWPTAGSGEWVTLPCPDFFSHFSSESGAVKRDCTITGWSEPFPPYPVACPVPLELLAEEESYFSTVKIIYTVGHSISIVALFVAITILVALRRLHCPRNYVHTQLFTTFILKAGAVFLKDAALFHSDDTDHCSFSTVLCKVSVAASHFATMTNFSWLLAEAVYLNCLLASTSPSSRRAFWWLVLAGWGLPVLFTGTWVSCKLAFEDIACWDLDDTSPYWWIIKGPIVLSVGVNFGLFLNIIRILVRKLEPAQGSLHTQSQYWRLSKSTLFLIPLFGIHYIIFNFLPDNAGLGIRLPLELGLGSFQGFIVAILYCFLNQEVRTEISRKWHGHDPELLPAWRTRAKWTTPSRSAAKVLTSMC

| EC50 | SMILES |
| --- | --- |
| 25 to 50 nM | CCCC[C@H](NC(=O)[C@@H](NC(=O)[C@H](CC(=O)O)NC(=O)[C@H](CCC(N)=O)NC(=O)[C@H](CC(C)C)NC(=O)[C@H](C)NC(=O)[C@H](CCCCN)NC(=O)[C@H](CCCNC(=N)N)NC(=O)[C@]1(C)CCCC=CCCCCCC[C@@](C)(NC(=O)[C@H](CCCNC(=N)N)NC(=O)[C@H](Cc2ccc(O)cc2)NC(=O)[C@H](CO)NC(=O)[C@H](C)NC(=O)[C@@H](NC(=O)[C@H](Cc2ccccc2)NC(=O)[C@@H](NC(=O)[C@H](C)NC(=O)[C@H](CC(=O)O)NC(=O)[C@H](C)NC(=O)[C@H](Cc2ccc(O)cc2)NC)[C@@H](C)CC)[C@@H](C)O)C(=O)N[C@@H](C(C)C)C(=O)N[C@@H](CC(C)C)C(=O)N[C@@H](C)C(=O)N[C@@H](CCC(N)=O)C(=O)N[C@@H](CC(C)C)C(=O)N[C@@H](CO)C(=O)N1)[C@@H](C)CC)C(=O)N[C@@H](CO)C(=O)N[C@@H](CCCNC(=N)N)C(=O)N[C@@H](CCC(=O)O)C(=O)N[C@@H](CCC(=O)O)C(=O)N[C@@H](CCC(=O)O)C(N)=O [SP-59] (H-[NMeY]ADAIFTASYR[R8]VLAQLS[S5]RKALQDI[Nle]SREEE-NH2; staple 12-19) |
| 25 to 50 nM | CCCC[C@H](NC(=O)[C@@H](NC(=O)[C@H](CC(=O)O)NC(=O)[C@H](CCC(N)=O)NC(=O)[C@H](CC(C)C)NC(=O)[C@H](C)NC(=O)[C@H](CCCCN)NC(=O)[C@H](CCCNC(=N)N)NC(=O)[C@]1(C)CCCC=CCCCCCC[C@@](C)(NC(=O)[C@H](CCCNC(=N)N)NC(=O)[C@H](Cc2ccc(O)cc2)NC(=O)[C@H](CO)NC(=O)[C@H](C)NC(=O)[C@@H](NC(=O)[C@H](Cc2ccccc2)NC(=O)[C@@H](NC(=O)[C@H](C)NC(=O)[C@H](CC(=O)O)NC(=O)[C@H](C)NC(=O)[C@H](Cc2ccc(O)cc2)NC)[C@@H](C)CC)[C@@H](C)O)C(=O)N[C@@H](C(C)C)C(=O)N[C@@H](CC(C)C)C(=O)N[C@@H](C)C(=O)N[C@@H](CCC(N)=O)C(=O)N[C@@H](CC(C)C)C(=O)N[C@@H](CO)C(=O)N1)[C@@H](C)CC)C(=O)N[C@@H](CO)C(N)=O [SP-60] (H-[NMeY]ADAIFTASYR[R8]VLAQLS[S5]RKALQDI[Nle]S-NH2; staple 12-19) |
| 10 to 25 nM | CCCC[C@H](NC(=O)[C@@H](NC(=O)[C@H](C)NC(=O)[C@H](CCC(N)=O)NC(=O)[C@H](CC(C)C)NC(=O)[C@H](C)NC(=O)[C@H](CCCCN)NC(=O)[C@H](CCCNC(=N)N)NC(=O)[C@]1(C)CCCC=CCCCCCC[C@@](C)(NC(=O)[C@H](CCCNC(=N)N)NC(=O)[C@H](Cc2ccc(O)cc2)NC(=O)[C@H](CO)NC(=O)[C@H](C)NC(=O)[C@@H](NC(=O)[C@H](Cc2ccccc2)NC(=O)[C@@H](NC(=O)[C@H](C)NC(=O)[C@H](CC(=O)O)NC(=O)[C@H](C)NC(=O)[C@H](Cc2ccc(O)cc2)NC)[C@@H](C)CC)[C@@H](C)O)C(=O)N[C@@H](C(C)C)C(=O)N[C@@H](CC(C)C)C(=O)N[C@@H](C)C(=O)N[C@@H](CCC(N)=O)C(=O)N[C@@H](CC(C)C)C(=O)N[C@@H](CO)C(=O)N1)[C@@H](C)CC)C(=O)N[C@@H](CO)C(=O)N[C@@H](CCCNC(=N)N)C(N)=O [SP-61] (H-[NMeY]ADAIFTASYR[R8]VLAQLS[S5]RKALQAI[Nle]SR-NH2; staple 12-19) |
| 25 to 50 nM | CCCC[C@H](NC(=O)[C@H](C)NC(=O)[C@H](CC(=O)O)NC(=O)[C@H](CCC(N)=O)NC(=O)[C@H](CC(C)C)NC(=O)[C@H](C)NC(=O)[C@H](CCCCN)NC(=O)[C@H](CCCNC(=N)N)NC(=O)[C@]1(C)CCCC=CCCCCCC[C@@](C)(NC(=O)[C@H](CCCNC(=N)N)NC(=O)[C@H](Cc2ccc(O)cc2)NC(=O)[C@H](CO)NC(=O)[C@H](C)NC(=O)[C@@H](NC(=O)[C@H](Cc2ccccc2)NC(=O)[C@@H](NC(=O)[C@H](C)NC(=O)[C@H](CC(=O)O)NC(=O)[C@H](C)NC(=O)[C@H](Cc2ccc(O)cc2)NC)[C@@H](C)CC)[C@@H](C)O)C(=O)N[C@@H](C(C)C)C(=O)N[C@@H](CC(C)C)C(=O)N[C@@H](C)C(=O)N[C@@H](CCC(N)=O)C(=O)N[C@@H](CC(C)C)C(=O)N[C@@H](CO)C(=O)N1)C(=O)N[C@@H](CO)C(=O)N[C@@H](CCCNC(=N)N)C(N)=O [SP-62] (H-[NMeY]ADAIFTASYR[R8]VLAQLS[S5]RKALQDA[Nle]SR-NH2; staple 12-19) |
